Assays:
RyR2 [1] = biological target: T1, RyR2 (Mus musculus, UniProt E9Q401); test: ER Ca2+; assay type: cell-based
RyR2 [2] = biological target: T1, RyR2; test: [3H]ryanodine binding to microsomes; assay type: biochemical

T1 sequence (E9Q401 whole entry): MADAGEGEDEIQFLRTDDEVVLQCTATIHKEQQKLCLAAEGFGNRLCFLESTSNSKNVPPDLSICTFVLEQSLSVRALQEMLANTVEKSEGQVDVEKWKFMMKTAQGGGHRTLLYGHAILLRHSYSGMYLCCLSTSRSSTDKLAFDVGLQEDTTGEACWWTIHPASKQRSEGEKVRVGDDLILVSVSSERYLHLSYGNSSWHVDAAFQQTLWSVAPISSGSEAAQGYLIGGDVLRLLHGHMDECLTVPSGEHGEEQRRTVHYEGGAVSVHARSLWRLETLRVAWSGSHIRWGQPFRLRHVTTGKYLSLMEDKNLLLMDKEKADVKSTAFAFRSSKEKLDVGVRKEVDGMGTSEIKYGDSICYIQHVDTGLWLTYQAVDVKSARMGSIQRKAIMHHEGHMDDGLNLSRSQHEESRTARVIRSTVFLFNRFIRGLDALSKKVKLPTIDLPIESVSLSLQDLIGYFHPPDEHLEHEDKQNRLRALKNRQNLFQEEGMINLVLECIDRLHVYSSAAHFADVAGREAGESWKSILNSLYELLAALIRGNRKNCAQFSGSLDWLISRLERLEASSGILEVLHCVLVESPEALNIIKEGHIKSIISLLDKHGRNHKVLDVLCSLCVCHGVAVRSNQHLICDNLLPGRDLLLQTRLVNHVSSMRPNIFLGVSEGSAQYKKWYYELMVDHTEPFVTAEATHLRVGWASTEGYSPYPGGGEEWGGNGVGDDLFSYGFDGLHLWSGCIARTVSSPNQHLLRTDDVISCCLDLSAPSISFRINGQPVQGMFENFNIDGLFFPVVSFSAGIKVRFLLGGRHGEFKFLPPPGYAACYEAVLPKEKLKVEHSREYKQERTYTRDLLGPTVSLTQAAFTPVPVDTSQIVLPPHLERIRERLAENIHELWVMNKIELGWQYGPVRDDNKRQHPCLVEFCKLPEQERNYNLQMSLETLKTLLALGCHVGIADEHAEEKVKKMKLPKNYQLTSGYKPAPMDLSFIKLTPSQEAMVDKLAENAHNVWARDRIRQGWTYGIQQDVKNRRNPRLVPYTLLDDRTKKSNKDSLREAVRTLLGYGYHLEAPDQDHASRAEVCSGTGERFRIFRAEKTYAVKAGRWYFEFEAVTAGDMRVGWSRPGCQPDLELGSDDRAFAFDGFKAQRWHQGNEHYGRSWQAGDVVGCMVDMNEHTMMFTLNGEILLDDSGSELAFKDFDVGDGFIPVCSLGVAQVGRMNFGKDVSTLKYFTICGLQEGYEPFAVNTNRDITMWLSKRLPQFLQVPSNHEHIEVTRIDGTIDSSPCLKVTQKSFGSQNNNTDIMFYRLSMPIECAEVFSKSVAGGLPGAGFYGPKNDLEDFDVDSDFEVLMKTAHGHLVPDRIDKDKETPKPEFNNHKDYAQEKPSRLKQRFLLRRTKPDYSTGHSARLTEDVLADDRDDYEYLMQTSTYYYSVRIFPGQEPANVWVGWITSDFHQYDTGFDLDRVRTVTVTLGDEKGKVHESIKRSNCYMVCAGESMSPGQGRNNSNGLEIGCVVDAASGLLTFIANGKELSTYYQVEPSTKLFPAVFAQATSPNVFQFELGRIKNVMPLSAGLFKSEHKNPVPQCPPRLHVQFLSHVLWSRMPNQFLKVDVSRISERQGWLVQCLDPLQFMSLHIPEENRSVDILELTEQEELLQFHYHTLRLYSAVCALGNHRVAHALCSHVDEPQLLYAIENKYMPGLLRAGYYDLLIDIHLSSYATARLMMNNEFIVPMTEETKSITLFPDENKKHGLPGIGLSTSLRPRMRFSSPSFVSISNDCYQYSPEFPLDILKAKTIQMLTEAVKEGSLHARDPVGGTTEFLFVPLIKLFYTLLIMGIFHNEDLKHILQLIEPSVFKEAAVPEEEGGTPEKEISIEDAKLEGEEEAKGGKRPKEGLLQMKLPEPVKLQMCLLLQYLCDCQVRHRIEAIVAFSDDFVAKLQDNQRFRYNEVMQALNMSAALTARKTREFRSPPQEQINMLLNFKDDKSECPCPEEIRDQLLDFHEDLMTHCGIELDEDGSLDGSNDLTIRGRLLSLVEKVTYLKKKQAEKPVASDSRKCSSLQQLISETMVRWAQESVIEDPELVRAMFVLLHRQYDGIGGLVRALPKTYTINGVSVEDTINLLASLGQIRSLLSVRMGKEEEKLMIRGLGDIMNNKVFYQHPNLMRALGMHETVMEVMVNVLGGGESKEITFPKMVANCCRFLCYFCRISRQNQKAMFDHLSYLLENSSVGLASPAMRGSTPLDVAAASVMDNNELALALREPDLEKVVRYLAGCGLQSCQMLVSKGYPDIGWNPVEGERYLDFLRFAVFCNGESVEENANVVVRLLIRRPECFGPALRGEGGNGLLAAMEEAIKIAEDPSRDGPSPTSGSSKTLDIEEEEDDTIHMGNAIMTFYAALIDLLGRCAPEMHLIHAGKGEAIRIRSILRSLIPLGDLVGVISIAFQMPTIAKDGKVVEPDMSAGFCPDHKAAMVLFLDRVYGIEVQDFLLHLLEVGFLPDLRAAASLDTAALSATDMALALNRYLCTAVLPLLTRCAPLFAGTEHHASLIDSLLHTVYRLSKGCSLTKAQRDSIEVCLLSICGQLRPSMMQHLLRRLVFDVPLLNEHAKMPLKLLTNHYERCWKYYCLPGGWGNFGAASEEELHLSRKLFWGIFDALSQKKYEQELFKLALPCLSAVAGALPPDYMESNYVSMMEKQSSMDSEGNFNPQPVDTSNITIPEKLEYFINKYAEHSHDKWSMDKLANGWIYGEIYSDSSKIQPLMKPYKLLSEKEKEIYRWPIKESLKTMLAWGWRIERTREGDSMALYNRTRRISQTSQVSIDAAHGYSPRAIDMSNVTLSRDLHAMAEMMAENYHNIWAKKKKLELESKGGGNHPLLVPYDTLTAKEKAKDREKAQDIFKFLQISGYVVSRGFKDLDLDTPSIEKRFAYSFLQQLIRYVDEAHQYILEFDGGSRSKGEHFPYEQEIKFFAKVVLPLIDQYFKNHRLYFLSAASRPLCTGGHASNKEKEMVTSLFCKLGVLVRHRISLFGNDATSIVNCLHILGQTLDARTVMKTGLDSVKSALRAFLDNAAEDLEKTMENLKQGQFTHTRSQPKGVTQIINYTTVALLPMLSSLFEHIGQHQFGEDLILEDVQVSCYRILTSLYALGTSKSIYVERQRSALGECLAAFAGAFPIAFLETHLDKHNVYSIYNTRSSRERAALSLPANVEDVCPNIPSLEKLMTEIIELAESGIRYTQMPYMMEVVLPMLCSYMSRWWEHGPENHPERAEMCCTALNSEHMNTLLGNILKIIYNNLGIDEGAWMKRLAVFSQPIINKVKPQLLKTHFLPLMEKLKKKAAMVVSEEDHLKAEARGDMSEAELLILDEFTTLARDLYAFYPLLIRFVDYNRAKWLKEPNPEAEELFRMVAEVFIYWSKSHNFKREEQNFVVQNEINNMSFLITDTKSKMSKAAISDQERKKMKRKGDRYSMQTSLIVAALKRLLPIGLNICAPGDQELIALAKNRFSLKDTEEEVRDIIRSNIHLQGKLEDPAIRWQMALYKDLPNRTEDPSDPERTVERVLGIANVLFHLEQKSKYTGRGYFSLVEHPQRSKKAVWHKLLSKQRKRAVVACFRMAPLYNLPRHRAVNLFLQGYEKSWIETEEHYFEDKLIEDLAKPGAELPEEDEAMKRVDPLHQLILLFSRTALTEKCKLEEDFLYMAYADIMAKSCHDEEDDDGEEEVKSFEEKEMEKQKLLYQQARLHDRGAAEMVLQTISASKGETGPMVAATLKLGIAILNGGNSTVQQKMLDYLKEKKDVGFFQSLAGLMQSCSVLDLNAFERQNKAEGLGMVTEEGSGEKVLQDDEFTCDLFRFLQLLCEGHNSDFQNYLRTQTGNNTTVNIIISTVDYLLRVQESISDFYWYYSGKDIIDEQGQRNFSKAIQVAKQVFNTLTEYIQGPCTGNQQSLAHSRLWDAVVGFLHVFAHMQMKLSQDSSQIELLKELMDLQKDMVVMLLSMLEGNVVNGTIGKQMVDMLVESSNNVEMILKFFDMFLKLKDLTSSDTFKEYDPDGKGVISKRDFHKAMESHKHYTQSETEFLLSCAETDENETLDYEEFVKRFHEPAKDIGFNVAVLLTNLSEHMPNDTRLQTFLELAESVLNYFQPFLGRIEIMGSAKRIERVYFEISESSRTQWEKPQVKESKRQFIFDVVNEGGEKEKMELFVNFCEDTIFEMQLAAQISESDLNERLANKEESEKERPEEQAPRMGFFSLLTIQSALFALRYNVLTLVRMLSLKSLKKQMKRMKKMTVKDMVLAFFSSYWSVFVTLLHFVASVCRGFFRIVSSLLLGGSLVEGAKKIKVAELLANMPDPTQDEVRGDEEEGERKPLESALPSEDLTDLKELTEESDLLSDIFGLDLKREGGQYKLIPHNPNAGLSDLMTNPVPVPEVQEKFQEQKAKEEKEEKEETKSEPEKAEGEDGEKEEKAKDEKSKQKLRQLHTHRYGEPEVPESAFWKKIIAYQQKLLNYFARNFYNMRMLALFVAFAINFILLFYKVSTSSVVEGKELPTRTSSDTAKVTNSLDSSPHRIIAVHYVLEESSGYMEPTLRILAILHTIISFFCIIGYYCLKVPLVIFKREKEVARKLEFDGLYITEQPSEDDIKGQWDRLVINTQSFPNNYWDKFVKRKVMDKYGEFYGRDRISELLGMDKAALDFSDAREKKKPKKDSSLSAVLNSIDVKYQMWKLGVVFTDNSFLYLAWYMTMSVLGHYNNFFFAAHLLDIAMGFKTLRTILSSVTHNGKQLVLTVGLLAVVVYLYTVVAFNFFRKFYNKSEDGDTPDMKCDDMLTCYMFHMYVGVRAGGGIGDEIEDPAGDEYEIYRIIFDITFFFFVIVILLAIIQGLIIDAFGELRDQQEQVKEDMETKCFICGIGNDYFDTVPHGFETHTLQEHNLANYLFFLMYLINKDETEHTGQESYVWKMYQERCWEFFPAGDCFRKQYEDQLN

`Cc1cc(O)cc(C)c1Cl` [#1, chloroxylenol] showed an EC50 (RyR2 [1]) of 300 nM and an IC50 (RyR2 [2]) of 130 nM.
